How the values were obtained:
Assay in all cases: IA-DTB cysteine engagement
Type in all cases: binding
CDKAL1_C556 = biological target: T1, CDKAL1_C556 (Homo sapiens, UniProt Q5VV42); conditions: 22Rv1 cells, relative to DMSO; for % engagement CDKAL1_C556: 20 μM probe, 1 h; for % engagement CDKAL1_556: 5 μM probe, 1 h (FIG. 5B)
T1 construct: endogenous in cells; host or cells: 22Rv1
T1 sequence (Q5VV42 1-579): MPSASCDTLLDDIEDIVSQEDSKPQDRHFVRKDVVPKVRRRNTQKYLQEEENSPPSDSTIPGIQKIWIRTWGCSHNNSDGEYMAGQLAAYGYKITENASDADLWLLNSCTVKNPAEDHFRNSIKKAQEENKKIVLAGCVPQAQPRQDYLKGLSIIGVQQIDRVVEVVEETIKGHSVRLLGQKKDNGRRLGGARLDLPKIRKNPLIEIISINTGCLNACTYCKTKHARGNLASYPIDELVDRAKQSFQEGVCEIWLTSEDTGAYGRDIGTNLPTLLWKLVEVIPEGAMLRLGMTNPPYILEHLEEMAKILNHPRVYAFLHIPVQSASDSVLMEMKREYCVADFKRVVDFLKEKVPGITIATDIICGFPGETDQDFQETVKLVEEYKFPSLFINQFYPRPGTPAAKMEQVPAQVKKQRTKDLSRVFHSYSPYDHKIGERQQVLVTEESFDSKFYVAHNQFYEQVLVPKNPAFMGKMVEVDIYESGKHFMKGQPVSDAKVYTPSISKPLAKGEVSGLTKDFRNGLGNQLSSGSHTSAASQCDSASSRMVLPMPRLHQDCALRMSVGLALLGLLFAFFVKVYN
Method in brief: (§1)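 Competitive chemoproteomics: residual cysteine reactivity toward IA-DTB in lysates from probe-treated cells was quantified by TMT reporter ions relative to DMSO-treated controls. Replicates sharing cell line, probe, concentration and duration were averaged.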

EPHX4_C287 = biological target: T2, EPHX4_C287 (Homo sapiens, UniProt Q8IUS5); conditions: 22Rv1 cells, 20 μM probe, 1 h, relative to DMSO
T2 construct: endogenous in cells; host or cells: 22Rv1
T2 sequence (Q8IUS5 1-362): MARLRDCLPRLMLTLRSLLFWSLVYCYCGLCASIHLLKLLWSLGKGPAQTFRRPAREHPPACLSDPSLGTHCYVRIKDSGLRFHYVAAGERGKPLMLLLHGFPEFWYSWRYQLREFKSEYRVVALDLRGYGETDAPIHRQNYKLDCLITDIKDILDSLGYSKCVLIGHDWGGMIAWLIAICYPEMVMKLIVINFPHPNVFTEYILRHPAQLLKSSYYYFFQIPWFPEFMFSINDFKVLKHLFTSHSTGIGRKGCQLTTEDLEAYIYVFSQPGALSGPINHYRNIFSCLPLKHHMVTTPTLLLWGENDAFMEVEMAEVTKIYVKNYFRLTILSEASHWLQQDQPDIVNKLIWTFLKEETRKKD
Method in brief: as §1

SPATA2_C41 = biological target: T3, SPATA2_C41 (Homo sapiens, UniProt Q9UM82); conditions: 22Rv1 cells, 20 μM probe, 1 h, relative to DMSO
T3 construct: endogenous in cells; host or cells: 22Rv1
T3 sequence (Q9UM82 1-520): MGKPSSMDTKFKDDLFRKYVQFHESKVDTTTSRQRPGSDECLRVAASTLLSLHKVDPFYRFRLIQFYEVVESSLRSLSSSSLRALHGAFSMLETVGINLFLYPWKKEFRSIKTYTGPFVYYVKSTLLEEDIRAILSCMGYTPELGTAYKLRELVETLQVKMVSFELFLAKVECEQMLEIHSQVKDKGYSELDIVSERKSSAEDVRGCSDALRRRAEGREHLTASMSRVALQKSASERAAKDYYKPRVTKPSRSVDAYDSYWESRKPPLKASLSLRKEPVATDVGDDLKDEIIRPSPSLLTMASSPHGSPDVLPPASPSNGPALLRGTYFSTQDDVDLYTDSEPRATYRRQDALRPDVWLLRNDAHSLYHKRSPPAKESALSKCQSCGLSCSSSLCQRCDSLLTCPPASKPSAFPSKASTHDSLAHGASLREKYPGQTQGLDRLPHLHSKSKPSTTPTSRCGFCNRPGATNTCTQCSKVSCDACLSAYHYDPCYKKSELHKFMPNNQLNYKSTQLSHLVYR
Method in brief: as §1

Row | SMILES | % engagement CDKAL1_C556 (CDKAL1_C556) [%] | % engagement EPHX4_C287 (EPHX4_C287) [%] | % engagement SPATA2_C41 (SPATA2_C41) [%] | % engagement CDKAL1_556 (CDKAL1_C556) [%]
1 | C=CC(=O)N1C[C@@H](c2ccc(Br)cc2)[C@H]1C(=O)Nc1cccc2cccnc12 [MY-1A, (2S,3R)-1-acryloyl-3-(4-bromophenyl)-N-(quinolin-8-yl)azetidine-2-carboxamide] | 59.5 | 23.5 | 58 | –
2 | C=CC(=O)N1C[C@H](c2ccc(Br)cc2)[C@@H]1C(=O)Nc1cccc2cccnc12 [MY-1B, (2R,3S)-1-acryloyl-3-(4-bromophenyl)-N-(quinolin-8-yl)azetidine-2-carboxamide] | 91 | 44.5 | 91.75 | 79.33
3 | C=CC(=O)N1C[C@H](c2ccc(Br)cc2)[C@H]1C(=O)Nc1cccc2cccnc12 [MY-3A, (2S,3S)-1-acryloyl-3-(4-bromophenyl)-N-(quinolin-8-yl)azetidine-2-carboxamide] | 88.5 | 28 | 24.5 | –
4 | C=CC(=O)N1C[C@H](c2ccc(Br)cc2)[C@H]1C(=O)Nc1cccc2cccnc12 [MY-3B, (2S,3S)-1-acryloyl-3-(4-bromophenyl)-N-(quinolin-8-yl)azetidine-2-carboxamide] | 89 | 86.5 | 29.5 | –
5 | CC#CC(=O)N1C[C@H](c2ccc(Br)cc2)[C@@H]1C(=O)Nc1cccc2cccnc12 [MY-45B, (2R,3S)-3-(4-bromophenyl)-1-(but-2-ynoyl)-N-(quinolin-8-yl)azetidine-2-carboxamide] | – | – | – | 67.00
